Measured values reported in publication PMC9221442, “Design, Synthesis and Characterization of [G10a]-Temporin SHa Dendrimers as Dual Inhibitors of Cancer and Pathogenic Microbes” (Biomolecules, 2022).
Like-named read-outs stand apart in the source and are kept apart here. Where a SMILES comes first, the peptide text is derived from it. Bridges are numbered along the chain shown (N, C = ends). Roman numbers before positions name the chains, in order. Where no end group is shown, it is not given here. [ ]: non-standard residue; d: D form.

Tests used:
[1] = system: breast cancer cells MCF-7; type: cell-based, human; conditions: 48 h
Protocol: (§1) The antiproliferative effect of the peptides was determined by using human cells, as previously described. Human cancer cells used in this experiment were ovarian cancer cells A2780 (obtained from ECACC), breast cancer cells MCF-7 (obtained from ATCC), liver cancer cells HepG2 (obtained from ATCC), lung cancer cells A549 (obtained from ATCC), pancreatic cancer cells MiaPaCa (obtained from ATCC), prostate cancer cells PC-3 (obtained from ATCC), and skin cancer cells MNT-1 (generous gift from the National Institute of Health (NIH). Normal human cells used were human lung fibroblasts IMR-90 (obtained from ATCC). All cells were cultured in DMEM which was supplemented with 10% fetal bovine serum (FBS), 1% L-glutamine, and 1% antibiotics (all from Invitrogen) at 37 °C in 5% CO2 incubator. For cytotoxicity assay, cells were maintained in 25 cm^2 flasks. Cells were separated from flasks using trypsin-EDTA solution (from Thermofisher) and counted using Malassez chamber and diluted in culture medium before seeding into 96-well cell-culture plates (Greiner bio-one, Paris, France) at approximately 3000 cells/well. Cells were then treated with increasing concentration of peptides diluted in culture medium (1:2 serial dilution, from 100 µM to 0 µM). After 48 h, medium was aspirated and number of viable cells was colorimetrically determined using resazurin-based assay following manufacturer’s instructions. The fluorescence intensity was measured using microplate reader (Biotek, Santa Clara, CA, USA, Synergy Mx) with an excitation wavelength of 530 nm and an emission wavelength of 590 nm. The fluorescence values were normalized by the controls (untreated cells) and expressed as percent of proliferation. The IC50 values of peptides (i.e., the concentrations causing 50% inhibition of cell proliferation) were determined using GraphPad® Prism 7 software.

liver cancer cells HepG2 = type: cell-based, human; conditions: 48 h
Protocol: as §1

lung cancer cells A549 = type: cell-based, human; conditions: 48 h
Protocol: as §1

[2] = system: ovarian cancer cells A2780; type: cell-based, human; conditions: 48 h
Protocol: as §1

[3] = system: pancreatic cancer cells MiaPaCa; type: cell-based, human; conditions: 48 h
Protocol: as §1

[4] = system: prostate cancer cells PC-3; type: cell-based, human; conditions: 48 h
Protocol: as §1

skin cancer cells MNT-1 = type: cell-based, human; conditions: 48 h
Protocol: as §1

human cancer cells = type: cell-based
Protocol: as §1

[5] = system: human lung fibroblasts IMR-90; type: cell-based; conditions: 48 h
Protocol: as §1

human red blood cells = assay: Hemolysis assay; type: cell-based; conditions: for hemolysis: 100 µM; for estimated HC50 (concentration causing 50% of hemolysis): 1 h
Protocol: (§2) The ability of dendrimers and peptides to cause hemolysis was evaluated using human whole red blood cells. Briefly, fresh human erythrocytes (obtained from Divbio Science Europe, NL) were washed 3 times by centrifugation at 800× g for 5 min with sterile phosphate buffer saline (PBS, pH 7.4). The washed erythrocytes were resuspended in complete culture media (DMEM supplemented with 10% FBS) to a final concentration of 8%. Human erythrocytes were then added into sterile 96-well microplates (150 µL per well) and were exposed to increasing concentrations of peptides or dendrimers. After 1 h incubation at 37 °C, plates were centrifuged at 800× g for 5 min. Then, 100 µL of supernatant were carefully transferred to a new 96-well microplate and absorbance was measured at 450 nm using microplate reader. Triton-X100 at 0.1% (v/v) was used as positive control giving 100% hemolysis. The HC50 values of peptides and dendrimers (i.e., the concentration of compound causing 50% of hemolysis) were calculated using GraphPad® Prism 7 software.

[6] = Stability study at different temperatures (absorbance spectrum); conditions: room temperature, 35 °C, 40 °C, 50 °C and 60 °C
Protocol: The stability of dendrimers at different pH values and temperatures was also determined. For this, a 510 model digital pH meter (Oakton Eutech) with working electrode of glass material and a Ag/AgCl as reference electrode was used for the pH record. Dilute solutions of HCl and NaOH were added to adjust the pH of the solution from 2 to 12. Similarly, stability of monomer [G10a]-SHa and its three dendrimers was checked by heating the peptide dendrimers on different temperature ranges, i.e., room temperature, 35 °C, 40 °C, 50 °C and 60 °C.

[7] = Stability study at different pH; conditions: pH 2 to pH 14
Protocol: The stability of dendrimers at different pH values and temperatures was also determined. For this, a 510 model digital pH meter (Oakton Eutech) with working electrode of glass material and a Ag/AgCl as reference electrode was used for the pH record. […] Similarly, stability of monomer [G10a]-SHa and its three dendrimers was checked by heating the peptide dendrimers on different temperature ranges, i.e., room temperature, 35 °C, 40 °C, 50 °C and 60 °C.

[8] = system: Acinetobacter baumannii (DSM 30007); type: cell-based; conditions: A. baumannii (DSM 30007), 18–24 h, aerobic
Protocol: (§3) Experiments were performed in triplicate (n = 3).

[9] = system: Bacillus subtilis (ATCC 6633); type: cell-based; conditions: B. subtilis (ATCC 6633), 18–24 h, aerobic
Protocol: as §3

[10] = system: Enterobacter cloacae (DSM 30054); type: cell-based; conditions: E. cloacae (DSM 30054), 18–24 h, aerobic
Protocol: as §3

[11] = system: Enterococcus faecalis (DSM 2570); type: cell-based; conditions: E. faecalis (DSM 2570), 18–24 h, micro-aerobic
Protocol: as §3

[12] = system: Enterococcus faecium (DSM 20477); type: cell-based; conditions: E. faecium (DSM 20477), 18–24 h, micro-aerobic
Protocol: as §3

[13] = system: Escherichia coli (ATCC 8739); type: cell-based; conditions: E. coli (ATCC 8739), 18–24 h, aerobic
Protocol: as §3

[14] = system: Helicobacter pylori (ATCC 43504); type: cell-based; conditions: H. pylori (ATCC 43504), 18–24 h, micro-aerobic
Protocol: as §3

[15] = system: Klebsiella pneumoniae (DSM 26371); type: cell-based; conditions: K. pneumoniae (DSM 26371), 18–24 h
Protocol: as §3

[16] = system: Pseudomonas aeruginosa (ATCC 9027); type: cell-based; conditions: P. aeruginosa (ATCC 9027), 18–24 h, aerobic
Protocol: as §3

[17] = system: Staphylococcus aureus (ATCC 6538); type: cell-based; conditions: S. aureus (ATCC 6538), 18–24 h, aerobic
Protocol: as §3

Hemolysis assay = type: cell-based, human; conditions: human; at 100 µM, 1 h, 37 °C, relative to Triton X-100 0.1%
Protocol: as §2

[18] = Dynamic light scattering (zetasizer); type: physicochemical
Protocol: The dendrimeric solutions of peptides were transferred into transparent cuvette with care to remove bubble formation. The sample was then transferred to the cell holder and study was performed at 90° scattering angle at room temperature. The standard viscosity and refractive index were kept constant and kept at 1.0, 1.33 and 80.4 mPa, respectively.

Molecule	IC50 [1]	IC50 (liver cancer cells HepG2)	IC50 (lung cancer cells A549)	IC50 [2]	IC50 [3]	IC50 [4]	IC50 (skin cancer cells MNT-1)	IC50 (human cancer cells; 48 h)	IC50 [5]	hemolytic activity (in words) (human red blood cells)	hemolysis (human red blood cells)	estimated HC50 (concentration causing 50% of hemolysis) (human red blood cells; red cells of human)	stability at different temperatures [6]	stability at different pH [7]	minimal inhibitory concentration (MIC) [8]	minimal inhibitory concentration (MIC) [13]	minimal inhibitory concentration (MIC) [14]	minimal inhibitory concentration (MIC) [17]	further results
CC[C@H](C)[C@H](NC(=O)CNC(=O)[C@H](CO)NC(=O)[C@H](CC(C)C)NC(=O)[C@@H](N)Cc1ccccc1)C(=O)N[C@H](C(=O)NCC(=O)N[C@@H](CCSC)C(=O)N[C@@H](CC(C)C)C(=O)N[C@H](C)C(=O)N[C@@H](CCCCN)C(=O)N[C@@H](CC(C)C)C(=O)N[C@@H](Cc1ccccc1)C(=O)NCCCC[C@H](NC(=O)[C@H](Cc1ccccc1)NC(=O)[C@H](CC(C)C)NC(=O)[C@H](CCCCN)NC(=O)[C@@H](C)NC(=O)[C@H](CC(C)C)NC(=O)[C@H](CCSC)NC(=O)CNC(=O)[C@@H](NC(=O)[C@@H](NC(=O)CNC(=O)[C@H](CO)NC(=O)[C@H](CC(C)C)NC(=O)[C@@H](N)Cc1ccccc1)[C@@H](C)CC)C(C)C)C(N)=O)C(C)C [[G10a]2-SHa] (HELM PEPTIDE1{F.L.S.G.I.V.G.M.L.[dA].K.L.F.K.[am]}|PEPTIDE2{F.L.S.G.I.V.G.M.L.[dA].K.L.F}$PEPTIDE1,PEPTIDE2,14:R3-13:R2$$$V2.0)	5.69 ± 1.46 µM	14.3 ± 1.37 µM	3.79 ± 1.61 µM	4.42 ± 0.06 µM	8.71 ± 0.35 µM	6.31 ± 0.66 µM	4.72 ± 0.36 µM	6.85 ± 3.66 µM	22.3 ± 0.4 µM	high hemolytic activity	complete hemolysis	11.55 ± 0.38 µM	considerable stability up to 60 °C	significantly stable at pH values up to 10 and unstable at high pH values of 12 and 14					
FLSGIVGMLGKLF-NH2 [Temporin SHa, H-Phe^1-Leu^2-Ser^3-Gly^4-Ile^5-Val^6-Gly^7-Met^8-Leu^9-Gly^10-Lys^11-Leu^12-Phe^13-NH2]															6.25 µM	50 µM	3.12 µM	3.12 µM	minimal inhibitory concentration (MIC) [9]: 1.56 µM; minimal inhibitory concentration (MIC) [10]: 50 µM; minimal inhibitory concentration (MIC) [11]: 12.5 µM; minimal inhibitory concentration (MIC) [12]: 6.25 µM; minimal inhibitory concentration (MIC) [15]: 50 µM; minimal inhibitory concentration (MIC) [16]: 50 µM; IC50 ([1]; Breast Cancer (MCF-7), read-out: IC50 (cell proliferation)): 20.4 ± 5.64 µM; IC50 (liver cancer cells HepG2; Liver Cancer (HepG-2), read-out: IC50 (cell proliferation)): > 100 µM; IC50 (lung cancer cells A549; Lung Cancer (A549), read-out: IC50 (cell proliferation)): > 100 µM; IC50 ([2]; Ovarian Cancer (A2780), read-out: IC50 (cell proliferation)): > 100 µM; IC50 ([3]; Pancreatic Cancer (MiaPaCa), read-out: IC50 (cell proliferation)): > 100 µM; IC50 ([4]; Prostate Cancer (PC-3), read-out: IC50 (cell proliferation)): > 100 µM; IC50 (skin cancer cells MNT-1; Skin Cancer (MNT-1), read-out: IC50 (cell proliferation)): > 100 µM; IC50 (human cancer cells; all cells except breast cancer MCF-7, up to 100 µM, read-out: IC50 on the human cells tested other than MCF-7): > 100 µM; IC50 ([5]; Human Normal Fibroblast (IMR-90), read-out: IC50 (cell proliferation)): > 100 µM; hemolysis at 1 h, 100 µM (Hemolysis assay): 24.5 ± 1.88%; estimated HC50 (concentration causing 50% of hemolysis) (human red blood cells; human erythrocytes, 37 °C): 266.20 ± 41.27 µM
I: H-FLSGIVGML[dA]KLFKK-NH2 / II: H-FLSGIVGML[dA]KLF / III: H-FLSGIVGML[dA]KLF (amide I:14-III:C, I:15-II:C) [[G10a]3-SHa]	3.77 ± 0.12 µM	5.49 ± 0.37 µM	3.74 ± 3.46 µM	2.31 ± 0.08 µM	6.94 ± 0.27 µM	1.84 ± 0.17 µM	2.24 ± 0.05 µM	3.76 ± 1.87 µM	13.9 ± 0.42 µM	high hemolytic activity	complete hemolysis	10.46 ± 0.36 µM	considerable stability up to 60 °C	significantly stable at pH values up to 10 and unstable at high pH values of 12 and 14	3.12 µM	25 µM	25 µM	6.25 µM	times more active than [G10a]-SHa at inhibiting multiplying cancer cells (human cancer cells; from mean IC50 on human cancer cells): 4.8 times; Pdi Values (polydispersity index) ([18]; DLS): 0.462; average hydrodynamic diameter ([18]; DLS): about 46.13 nm; Z-Average ([18]; DLS, room temperature): 46.13 nm·days; Zeta Potential ([18]; zetasizer): −71.2 mV
